{"source": "PubChem BioAssay (NCI)", "assay_in_all_cases": "NCI-60 cell line screen, 48 h", "key": {"SK-OV-3 ovarian": {"tested_on": "SK-OV-3 ovarian"}, "MOLT-4 leukemia": {"tested_on": "MOLT-4 leukemia"}, "UACC-62 melanoma": {"tested_on": "UACC-62 melanoma"}, "A549 NSCLC": {"tested_on": "A549 NSCLC"}, "HT29 colon": {"tested_on": "HT29 colon"}, "UACC-257 melanoma": {"tested_on": "UACC-257 melanoma"}, "OVCAR-8 ovarian": {"tested_on": "OVCAR-8 ovarian"}, "SR leukemia": {"tested_on": "SR leukemia"}, "NCI-H522 lung": {"tested_on": "NCI-H522 lung"}, "LOX IMVI melanoma": {"tested_on": "LOX IMVI melanoma"}, "SF-539 CNS": {"tested_on": "SF-539 CNS"}, "EKVX NSCLC": {"tested_on": "EKVX NSCLC"}, "MDA-MB-231 breast": {"tested_on": "MDA-MB-231 breast"}, "OVCAR-5 ovarian": {"tested_on": "OVCAR-5 ovarian"}, "SN12C renal": {"tested_on": "SN12C renal"}, "786-0 renal": {"tested_on": "786-0 renal"}, "U251 CNS": {"tested_on": "U251 CNS"}, "NCI-H23 lung": {"tested_on": "NCI-H23 lung"}, "RXF 393 renal": {"tested_on": "RXF 393 renal"}, "HCC-2998 colon": {"tested_on": "HCC-2998 colon"}, "OVCAR-4 ovarian": {"tested_on": "OVCAR-4 ovarian"}, "SK-MEL-5 melanoma": {"tested_on": "SK-MEL-5 melanoma"}, "T-47D breast": {"tested_on": "T-47D breast"}, "PC-3 prostate": {"tested_on": "PC-3 prostate"}, "IGROV1 ovarian": {"tested_on": "IGROV1 ovarian"}, "COLO 205 colon": {"tested_on": "COLO 205 colon"}, "NCI/ADR-RES ovarian": {"tested_on": "NCI/ADR-RES ovarian"}, "DU-145 prostate": {"tested_on": "DU-145 prostate"}, "MDA-MB-435": {"tested_on": "MDA-MB-435"}}, "note": "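Test compounds were applied to cells in 96-well plates for 48 hours at 5 doses. GI50 marks 50% less growth. TGI: total growth inhibition.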", "data": [{"smiles": "CC[C@]12C=CCN3CC[C@]4(C(=C(C(=O)OC)C1)Nc1cc5c(cc14)[C@@H]1[C@H](O5)[C@@H](O)[C@@]4(CC)CC(C(=O)OC)=C5Nc6cc(O)ccc6[C@@]56CCN1C46)C32", "note": "(stereo partly specified)", "values": [{"measurement": "GI50", "setting": "SK-OV-3 ovarian", "result": 172, "unit": "nM"}, {"measurement": "TGI", "setting": "SK-OV-3 ovarian", "result": 1060, "unit": "nM"}, {"measurement": "GI50", "setting": "MOLT-4 leukemia", "result": 134, "unit": "nM"}, {"measurement": "TGI", "setting": "MOLT-4 leukemia", "result": "> 50000", "unit": "nM"}, {"measurement": "GI50", "setting": "UACC-62 melanoma", "result": 85.9, "unit": "nM"}, {"measurement": "TGI", "setting": "UACC-62 melanoma", "result": 40300, "unit": "nM"}, {"measurement": "GI50", "setting": "A549 NSCLC", "result": 259, "unit": "nM"}, {"measurement": "TGI", "setting": "A549 NSCLC", "result": 9990, "unit": "nM"}, {"measurement": "GI50", "setting": "HT29 colon", "result": 153, "unit": "nM"}, {"measurement": "TGI", "setting": "HT29 colon", "result": 1830, "unit": "nM"}, {"measurement": "GI50", "setting": "UACC-257 melanoma", "result": 122, "unit": "nM"}, {"measurement": "TGI", "setting": "UACC-257 melanoma", "result": "> 21500", "unit": "nM"}, {"measurement": "GI50", "setting": "OVCAR-8 ovarian", "result": 166, "unit": "nM"}, {"measurement": "TGI", "setting": "OVCAR-8 ovarian", "result": "> 16000", "unit": "nM"}, {"measurement": "GI50", "setting": "SR leukemia", "result": 40.1, "unit": "nM"}, {"measurement": "TGI", "setting": "SR leukemia", "result": 4280, "unit": "nM"}, {"measurement": "GI50", "setting": "NCI-H522 lung", "result": 61.4, "unit": "nM"}, {"measurement": "TGI", "setting": "NCI-H522 lung", "result": 324, "unit": "nM"}, {"measurement": "GI50", "setting": "LOX IMVI melanoma", "result": 59.7, "unit": "nM"}, {"measurement": "TGI", "setting": "LOX IMVI melanoma", "result": 135, "unit": "nM"}, {"measurement": "GI50", "setting": "SF-539 CNS", "result": 181, "unit": "nM"}, {"measurement": "TGI", "setting": "SF-539 CNS", "result": 8140, "unit": "nM"}, {"measurement": "GI50", "setting": "EKVX NSCLC", "result": 239, "unit": "nM"}, {"measurement": "TGI", "setting": "EKVX NSCLC", "result": "> 24500", "unit": "nM"}, {"measurement": "GI50", "setting": "MDA-MB-231 breast", "result": 94.3, "unit": "nM"}, {"measurement": "TGI", "setting": "MDA-MB-231 breast", "result": 40200, "unit": "nM"}, {"measurement": "GI50", "setting": "OVCAR-5 ovarian", "result": 262, "unit": "nM"}, {"measurement": "TGI", "setting": "OVCAR-5 ovarian", "result": "> 22400", "unit": "nM"}, {"measurement": "GI50", "setting": "SN12C renal", "result": 185, "unit": "nM"}, {"measurement": "TGI", "setting": "SN12C renal", "result": "> 9990", "unit": "nM"}, {"measurement": "GI50", "setting": "786-0 renal", "result": 68.5, "unit": "nM"}, {"measurement": "TGI", "setting": "786-0 renal", "result": 4040, "unit": "nM"}, {"measurement": "GI50", "setting": "U251 CNS", "result": 195, "unit": "nM"}, {"measurement": "TGI", "setting": "U251 CNS", "result": 2580, "unit": "nM"}, {"measurement": "GI50", "setting": "NCI-H23 lung", "result": 165, "unit": "nM"}, {"measurement": "TGI", "setting": "NCI-H23 lung", "result": 1650, "unit": "nM"}, {"measurement": "GI50", "setting": "RXF 393 renal", "result": 162, "unit": "nM"}, {"measurement": "TGI", "setting": "RXF 393 renal", "result": 977, "unit": "nM"}, {"measurement": "GI50", "setting": "HCC-2998 colon", "result": 75.2, "unit": "nM"}, {"measurement": "TGI", "setting": "HCC-2998 colon", "result": 335, "unit": "nM"}, {"measurement": "GI50", "setting": "OVCAR-4 ovarian", "result": 213, "unit": "nM"}, {"measurement": "TGI", "setting": "OVCAR-4 ovarian", "result": "> 50000", "unit": "nM"}, {"measurement": "GI50", "setting": "SK-MEL-5 melanoma", "result": 217, "unit": "nM"}, {"measurement": "TGI", "setting": "SK-MEL-5 melanoma", "result": "> 15300", "unit": "nM"}, {"measurement": "GI50", "setting": "T-47D breast", "result": 103, "unit": "nM"}, {"measurement": "GI50", "setting": "PC-3 prostate", "result": 128, "unit": "nM"}, {"measurement": "TGI", "setting": "PC-3 prostate", "result": 8000, "unit": "nM"}, {"measurement": "GI50", "setting": "IGROV1 ovarian", "result": 112, "unit": "nM"}, {"measurement": "GI50", "setting": "COLO 205 colon", "result": 119, "unit": "nM"}, {"measurement": "TGI", "setting": "COLO 205 colon", "result": 619, "unit": "nM"}, {"measurement": "GI50", "setting": "NCI/ADR-RES ovarian", "result": 293, "unit": "nM"}, {"measurement": "TGI", "setting": "NCI/ADR-RES ovarian", "result": "> 50000", "unit": "nM"}, {"measurement": "GI50", "setting": "DU-145 prostate", "result": 707, "unit": "nM"}, {"measurement": "TGI", "setting": "DU-145 prostate", "result": "> 26400", "unit": "nM"}, {"measurement": "GI50", "setting": "MDA-MB-435", "result": 106, "unit": "nM"}, {"measurement": "TGI", "setting": "MDA-MB-435", "result": 1520, "unit": "nM"}]}]}
